The results in this text go back to paper PMC9867241, “Antioxidant and Cytotoxic Activity of New Polyphenolic Derivatives of Quinazolin-4(3H)-one: Synthesis and In Vitro Activities Evaluation” (Pharmaceutics, 2022).

Test [1] is described as follows: Fe^2+ chelation assay (ferrozine competition). Here is the method:
In the protocol used for evaluating the Fe^2+ chelating ability of the compounds, the absorbances of the solutions were determined at λ = 562 nm, against a blank sample. The method was adapted from the initial report of Benzie and Strain et al., which was previously reported by our group. Using Equation (5), we calculated the iron chelation capacities of the 5a–d and 6a–d compounds:(5) iron chelation (%)=control absorbance−sample absorbance/control absorbance×100
The chelating capacity of the tested compounds of Fe^2+ was evaluated based on their competition for Fe^2+ with ferrozine.

Test [2] is described as follows: Ferric reducing antioxidant potential (FRAP) assay. The arrangement: concentration or dose not given beside the values. To be noted: for FRAP, % of Activity of Trolox: relative to Trolox; for FRAP, % of Activity of Ascorbic Acid: relative to ascorbic acid. On the procedure:
In the ferric reducing antioxidant potential (FRAP) assay, in comparison with a blank sample prepared from DMSO mixed with FRAP reagent, the absorbance of the solutions was measured at λ = 593 nm. The compounds were tested according to a modified method proposed initially by Benzie and Strain [31]. Using Equation (4), we calculated the reducing antioxidant potential of 5a–d and 6a–d as a percentage of the activity of the reference compounds:(4) % of control activity=sample absorbance/reference absorbance×100
Ferrous ions resulting from the reduction of ferric ions in the presence of an antioxidant compound form a blue-colored complex (Fe^2+-TPTZ) at pH = 3.6 with tripyridyltriazine (2,4,6-tris(2-pyridyl)-s-triazine). The intensity of the blue complex formed is proportional to the number of ferrous ions. Compounds 5a, 5c and 5d expressed a good electron donation capacity.

Test [3] in a line: Cu^2+ chelation assay (murexide competition). The source says:
With murexide as a chromophoric chelator, we performed the protocol followed for the evaluation of Cu^2+ chelating activities of the compounds using an adaptation of the method presented by Cesari et al. and Wu et al.. Using Equation (6), we calculated the copper chelation capacities of the 5a–d and 6a–d compounds:(6) copper chelation (%)=(A485/A520)control−(A485/A520)sample/(A485/A520)control×100
The evaluation of the Cu^2+ chelation activity of compounds was made based on the competition for Cu^2+ with murexide. The chelating activity of compounds for the cupric ions found in the current assay is significant for the pyrogallol derivatives, being quite close to EDTA-Na2.

A short description of test [4]: Reducing power (RP) assay. To be noted: for RP, % of Activity of Trolox: relative to Trolox; for RP, % of Activity of Ascorbic Acid: relative to ascorbic acid. The arrangement: concentration or dose not given beside the values. Here is the method: Herein, the iron (III) is not free in the solution as it was in the FRAP assay and is complexed by cyanide ions. The evaluation of the reducing power (RP) was performed at a pH closer to neutral (pH = 6.6); this is different from the FRAP test, which is performed in an acidic environment. Against a blank sample, the absorbances were measured at λ = 700 nm. The followed protocol was based on the adaptation of previously reported protocols and was previously reported by our group. Using Equation (4), we calculated the reducing power of the 5a–d and 6a–d compounds as a percentage of the reference compounds activity.
The evaluated compounds can reduce ferricyanide to ferrocyanide, in the presence of ferric ions, resulting in the Perl’s Prussian which gives blue. The higher the percentage of reducing power, the higher was the absorbance that was measured due to a higher amount of colored complex resulting from the reaction.

For test [5], the system named is normal human foreskin fibroblasts (BJ). Briefly: Cytotoxicity, Alamar blue assay, BJ cells. To be noted: for IC50: Homo sapiens, Fibroblast, 24 h exposure, Alamar blue. The format is cell-based. The text has this:
Normal human foreskin (BJ) fibroblasts and two types of cancer cells, namely A549 (lung adenocarcinoma) and LNCaP (prostate carcinoma) purchased from American Type Culture Collection (Manassas, VA, USA), were used in the experiments. Each cell line was maintained in a different culture medium, depending on the metabolic necessities of the cells. BJ cells were maintained in Dulbecco’s modified Eagle’s medium (DMEM) with low glucose. A549 cells were maintained in DMEM with high glucose […], while LNCaP cells were grown in Roswell Park Memorial Institute (RPMI) 1640 medium with high glucose (5 g/L). All media used were supplemented with 10% fetal bovine serum (FBS) and were refreshed every two days. Cells were used in experiments or subcultured when they reached 70–80% confluence.
In 100 µL in 96-well plates, a number of 30,000 LNCaP cells, 15,000 A549 cells, and 7500 normal (BJ) cells were seeded. Because the cells have different sizes and volumes, the purpose of the different seedings was to achieve a confluency of 70–80% after 24 h. All types of cells were further exposed to the synthesized compounds (5a–d and 6a–d) for 24 h, at a concentration ranging from 12.5 to 100 µg/mL. Post-exposure, the media were removed, and the cells were washed with phosphate buffer saline (PBS). Their viability was evaluated using Alamar blue (AB) assay as previously described. Briefly, the cells were incubated with a 200 µM resazurin solution for 4 h. Using a Synergy 2 multi-mode microplate reader, we measured the fluorescence. The measurement was performed at λexcitation = 530/25 nm; λemission = 590/35 nm. We conducted the experiments using three biological replicates, each one including 6 technical replicates. As negative controls (NC), cells exposed to culture medium containing 0.2% DMSO were used. Compared to the NC (100%), the results were expressed as relative values. We used IC50 values for the potency evaluation, and calculated them for each cell line, using the dose-effect curves obtained by fitting the experimental data with a 4-parameter logistic curve.
Mean values ± standard deviation (SD) values of at least three biological replicates were used to calculate experimental data. One-way analysis of variance (ANOVA) with a post hoc Holm–Sidak test was used to statistically examine the data. Using SigmaPlot 11.0 software (Systat, Software Inc., Chicago, IL, USA), we performed the graphical display and data analysis. From a statistical point of view, the results were considered different, at values of p < 0.05.

Usually IC50 stands for the point on the concentration scale where inhibition reaches its midpoint. Regarding `CC(=NNC(=O)CSc1nc2ccccc2c(=O)n1Cc1ccccc1)c1ccc(O)cc1O` [Compound 6b, 2-((3-Benzyl-4-oxo-3,4-dihydroquinazolin-2-yl)thio)-N’-(1-(2,4-dihydroxyphenyl)ethylidene)acetohydrazide], the “Ferrous ions Chelation Capacity (%)” value in test [1] (17.70 µg/mL), in test [1] (20.59 µg/mL), in test [1] (29.41 µg/mL), in test [1] (44.11 µg/mL), in test [1] (58.82 µg/mL) and in test [1] (88.23 µg/mL) was “- (- represents less than 5%)” each time. Further, the “Ferrous ions Chelation Capacity (%)” value in test [1] (117.64 µg/mL), in test [1] (257.46 µg/mL) and in test [1] (343.28 µg/mL) was “- (- represents less than 5%)” in each case. In addition, the “FRAP, % of Activity of Trolox” value in test [2] worked out at 21.24%. The “FRAP, % of Activity of Ascorbic Acid” value in test [2] came to 18.51%. The “Cupric ions Chelation Capacity (%)” value in test [3] (3.36 µg/mL) worked out at 6.77%; in test [3] (8.40 µg/mL), 17.17%; in test [3] (16.80 µg/mL) it was 30.49%. Further, the “RP, % of Activity of Trolox” value in test [4] was 29.01%. Also, the “RP, % of Activity of Ascorbic Acid” value in test [4] was found to be 19.91%. The IC50 in test [5] is > 100 µg/mL.

As for `O=C(CSc1nc2ccccc2c(=O)n1Cc1ccccc1)NN=Cc1ccc(O)c(O)c1O` [Compound 5b, 2-((3-Benzyl-4-oxo-3,4-dihydroquinazolin-2-yl)thio)-N’-(2,3,4-trihydroxybenzylidene)acetohydrazide], the “Ferrous ions Chelation Capacity (%)” value in test [1] (17.70 µg/mL), in test [1] (20.59 µg/mL), in test [1] (29.41 µg/mL), in test [1] (44.11 µg/mL), in test [1] (58.82 µg/mL) and in test [1] (88.23 µg/mL) was “- (- represents less than 5%)” in each case. For the same molecule, the “Ferrous ions Chelation Capacity (%)” value in test [1] (117.64 µg/mL) was “- (- represents less than 5%)”; in test [1] (257.46 µg/mL), 19.02%; in test [1] (343.28 µg/mL), 35.16%. In addition, the “FRAP, % of Activity of Trolox” value in test [2] amounted to 76.93%. Besides, the “FRAP, % of Activity of Ascorbic Acid” value in test [2] is 67.05%. Besides, the “Cupric ions Chelation Capacity (%)” value came to 11.17% in test [3] (3.36 µg/mL), 25.27% in test [3] (8.40 µg/mL) and 40.20% in test [3] (16.80 µg/mL). Also, the “RP, % of Activity of Trolox” value in test [4] stood at 85.68%. Also, in test [4], the “RP, % of Activity of Ascorbic Acid” value is reported as 58.80%. The 50% inhibitory concentration (IC50) in test [5] was > 100 µg/mL.

For `C=CCn1c(SCC(=O)NN=Cc2ccc(O)c(O)c2O)nc2ccccc2c1=O` [Compound 5a, 2-((3-Allyl-4-oxo-3,4-dihydroquinazolin-2-yl)thio)-N’-(2,3,4-trihydroxybenzylidene)acetohydrazide], the “Ferrous ions Chelation Capacity (%)” value is listed as “- (- represents less than 5%)” in test [1] (17.70 µg/mL); “- (- represents less than 5%)” in test [1] (20.59 µg/mL); “- (- represents less than 5%)” in test [1] (29.41 µg/mL); “- (- represents less than 5%)” in test [1] (44.11 µg/mL); 18.44% in test [1] (58.82 µg/mL); 34.12% in test [1] (88.23 µg/mL). For the same molecule, the “Ferrous ions Chelation Capacity (%)” value in test [1] (117.64 µg/mL) worked out at 45.93%; in test [1] (257.46 µg/mL), 71.76%; in test [1] (343.28 µg/mL) it was 86.30%. For the same molecule, in test [2], the “FRAP, % of Activity of Trolox” value was found to be 98.88%. Moreover, the “FRAP, % of Activity of Ascorbic Acid” value in test [2] amounted to 86.18%. Further, the “Cupric ions Chelation Capacity (%)” value amounted to 20.33% in test [3] (3.36 µg/mL), 30.76% in test [3] (8.40 µg/mL) and 40.29% in test [3] (16.80 µg/mL). In addition, the “RP, % of Activity of Trolox” value in test [4] is reported as 92.09%. Further, the “RP, % of Activity of Ascorbic Acid” value in test [4] is listed as 63.20%. In test [5], the IC50 is > 100 µg/mL.

For the molecule `CCn1c(SCC(=O)NN=Cc2ccc(O)c(O)c2O)nc2ccccc2c1=O` [Compound 5c, 2-((3-Ethyl-4-oxo-3,4-dihydroquinazolin-2-yl)thio)-N’-(2,3,4-trihydroxybenzylidene)acetohydrazide], the “Ferrous ions Chelation Capacity (%)” value in test [1] (17.70 µg/mL), in test [1] (20.59 µg/mL), in test [1] (29.41 µg/mL), in test [1] (44.11 µg/mL), in test [1] (58.82 µg/mL) and in test [1] (88.23 µg/mL) was “- (- represents less than 5%)” in each case. Besides, the “Ferrous ions Chelation Capacity (%)” value worked out at 20.27% in test [1] (117.64 µg/mL), 65.75% in test [1] (257.46 µg/mL) and 89.24% in test [1] (343.28 µg/mL). The “FRAP, % of Activity of Trolox” value in test [2] was found to be 95.70%. Moreover, the “FRAP, % of Activity of Ascorbic Acid” value in test [2] was 83.40%. Besides, the results for the “Cupric ions Chelation Capacity (%)” value in test [3] (3.36 µg/mL), in test [3] (8.40 µg/mL) and in test [3] (16.80 µg/mL) were 13.06%, 23.23% and 32.60%, respectively. Moreover, the “RP, % of Activity of Trolox” value in test [4] is recorded as 72.75%. Besides, in test [4], the “RP, % of Activity of Ascorbic Acid” value came out at 49.93%. In test [5], the half-inhibitory concentration (IC50) is > 100 µg/mL. Further, the “decrease of cellular viability in BJ cells” value in test [5] (highest concentration tested, 24 h) is “approximately 40%”.
